Results as given in PubChem BioAssay (NCI).
Several values for one entry are separate records, joined by “and”; a condition that tells them apart may be missing. Equal values may be shown once.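 Grown in 96-well plates, cells were treated for 48 hours with each compound at five concentrations. Insufficient inhibition: endpoint recorded as highest concentration tested. GI50: concentration for 50% inhibition of growth. TGI is the concentration that stops growth completely.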

What was measured:
Test in all cases: growth of human tumour cells (NCI), 48 h
[1] = tested on: 786-0 renal
[2] = tested on: A498 renal
[3] = tested on: A549 NSCLC
[4] = tested on: BT-549 breast
[5] = tested on: CAKI-1 renal
[6] = tested on: CCRF-CEM leukemia
[7] = tested on: COLO 205 colon
[8] = tested on: DU-145 prostate
[9] = tested on: EKVX NSCLC
[10] = tested on: HCC-2998 colon
[11] = tested on: HCT-116 colon
[12] = tested on: HOP-62 NSCLC
[13] = tested on: HOP-92 NSCLC
[14] = tested on: HS 578T breast
[15] = tested on: HT29 colon
[16] = tested on: K-562 leukemia
[17] = tested on: KM12 colon
[18] = tested on: LOX IMVI melanoma
[19] = tested on: M14 melanoma
[20] = tested on: MALME-3M melanoma
[21] = tested on: MCF7 breast
[22] = tested on: MDA-MB-231 breast
[23] = tested on: MDA-MB-435
[24] = tested on: NCI-H226 lung
[25] = tested on: NCI-H460 lung
[26] = tested on: NCI-H522 lung
[27] = tested on: NCI/ADR-RES ovarian
[28] = tested on: OVCAR-3 ovarian
[29] = tested on: OVCAR-4 ovarian
[30] = tested on: OVCAR-5 ovarian
[31] = tested on: OVCAR-8 ovarian
[32] = tested on: PC-3 prostate
[33] = tested on: RPMI-8226 leukemia
[34] = tested on: RXF 393 renal
[35] = tested on: SF-268 CNS
[36] = tested on: SF-295 CNS
[37] = tested on: SF-539 CNS
[38] = tested on: SK-MEL-2 melanoma
[39] = tested on: SK-MEL-28 melanoma
[40] = tested on: SK-MEL-5 melanoma
[41] = tested on: SK-OV-3 ovarian
[42] = tested on: SN12C renal
[43] = tested on: SNB-19 CNS
[44] = tested on: SNB-75 CNS
[45] = tested on: SR leukemia
[46] = tested on: SW-620 colon
[47] = tested on: TK-10 renal
[48] = tested on: UACC-257 melanoma
[49] = tested on: UO-31 renal

## CC(=O)c1cnc2ccc(-c3cc(Cl)c(O)c(Cl)c3)nc2c1NC1CCC(CN(C)C)CC1 (stereo unspecified)
[1]
  GI50: 52.1 nM and 346 nM
  TGI: 289 nM and 1420 nM
[2]
  GI50: 13.7 nM and 111 nM
  TGI: 55.9 nM and 403 nM
[3]
  TGI: 570 nM and 1450 nM
[4]
  TGI: 120 nM and 588 nM
[5]
  GI50: 12.6 nM and 109 nM
  TGI: 672 nM and 535 nM
[6]
  TGI: 240 nM and 1540 nM
[7]
  GI50: 42.5 nM and 318 nM
[8]
  TGI: 1080 nM and 1760 nM
[9]
  GI50: 48.6 nM and 337 nM
[10]
  GI50: 44.9 nM and 191 nM
[11]
  GI50: 9.06 nM and 61.3 nM
  TGI: 2500 nM and > 10000 nM
[12]
  GI50: 27.5 nM and 195 nM
  TGI: 161 nM and 959 nM
[13]
  GI50: 11.4 nM and 52.6 nM
  TGI: 99 nM and 458 nM
[14]
  TGI: 107 nM and 739 nM
[15]
  GI50: 84.4 nM and 436 nM
  TGI: 888 nM and 4410 nM
[16]
  TGI: 2500 nM and > 10000 nM
[17]
  TGI: 558 nM and 2000 nM
[18]
  TGI: 264 nM and 1120 nM
[19]
  TGI: 273 nM and 760 nM
[20]
  GI50: 48.4 nM and 49.9 nM
  TGI: 220 nM and 416 nM
[21]
  GI50: 17.9 nM and 169 nM
  TGI: 224 nM and 695 nM
[22]
  GI50: 31.6 nM and 185 nM
  TGI: 495 nM and 772 nM
[23]
  GI50: 12.8 nM and 116 nM
  TGI: 384 nM and 1160 nM
[24]
  GI50: 39.5 nM and 81.9 nM
  TGI: 359 nM and 608 nM
[25]
  TGI: 105 nM and 1050 nM
[26]
  GI50: 4.88 nM and 48 nM
[27]
  GI50: 53.1 nM and 310 nM
[28]
  TGI: 78.1 nM and 562 nM
[29]
  GI50: 40.4 nM and 245 nM
  TGI: 324 nM and 2580 nM
[30]
  GI50: 61.2 nM and 207 nM
  TGI: 2500 nM and > 10000 nM
[31]
  GI50: 28.9 nM and 255 nM
[32]
  TGI: 2500 nM and 1190 nM
[33]
  GI50: 45.1 nM and 367 nM
[34]
  GI50: 35.8 nM and 185 nM
  TGI: 93.9 nM and 419 nM
[35]
  TGI: 189 nM and 1220 nM
[36]
  GI50: 32.9 nM and 267 nM
[37]
  TGI: 53.1 nM and 505 nM
[38]
  GI50: 28.8 nM and 237 nM
  TGI: 85.5 nM and 689 nM
[39]
  GI50: 19.4 nM and 186 nM
  TGI: 171 nM and 758 nM
[40]
  TGI: 55.4 nM and 306 nM
[41]
  TGI: 111 nM and 987 nM
[42]
  TGI: 1340 nM and 2270 nM
[43]
  GI50: 31.1 nM and 230 nM
  TGI: 2500 nM and 3820 nM
[44]
  GI50: 5.15 nM and 33.3 nM
  TGI: 36.8 nM and 360 nM
[45]
  GI50: 5.49 nM
  TGI: 39.8 nM
[46]
  TGI: 2500 nM and > 10000 nM
[47]
  GI50: 30.7 nM and 160 nM
  TGI: 106 nM and 664 nM
[48]
  GI50: 54.4 nM and 192 nM
  TGI: 234 nM and 783 nM
[49]
  TGI: 87.7 nM and 508 nM
